The source made the active and inactive calls.

The subject of one assay is P388/ADR. The assay is described as follows: cells. The note with it: Mus musculus. It counts as functional.
The subject of a further assay is SN12K1. Put plainly: cells. It counts as functional. As to conditions: Homo sapiens.
The subject of the next assay is P388. The assay is described as follows: cells. The note with it: Mus musculus. It counts as functional.
The subject of assay [1] is BJ. Put plainly: BJ-TERT fibroblast viability loss – cell-based, RAS-independent, luminescence, dose response (AID 1933). It counts as functional. The note with it: Homo sapiens.
In assay [2] the test system is Vero. Put plainly: mammalian cell viability reduction – secondary assay, cytotoxicity control for West Nile virus antiviral project, dose response (AID 1650). It counts as functional. As to conditions: Chlorocebus sabaeus.
Assay [3] has as its system BJ. Put plainly: cells. It counts as functional, cell-based. The note with it: Homo sapiens.
The test system of assay [4] is BJ. Put plainly: BJ-TERT-LT-ST fibroblast viability loss – cell-based, RAS-independent, luminescence, dose response (AID 1935).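 Further: BJ fibroblasts immortalized with TERT plus LT and ST oncogenes.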 It counts as functional. The note with it: Homo sapiens.
A short description of assay [5]: DRD fibroblast viability loss – cell-based, non-viral oncogenic, luminescence, dose response (AID 1934). It counts as functional. The note with it: Homo sapiens.
The test system of assay [6] is Vero. The assay is described as follows: cells. It counts as functional, cell-based. As to conditions: Chlorocebus sabaeus.
In assay [7] the test system is Vero. The assay is described as follows: cells. As to conditions: Chlorocebus sabaeus. It counts as functional.
The target of assay [8] is T1, Corticotropin-releasing factor receptor 2/Corticotropin-releasing factor-binding protein (Homo sapiens, UniProt P24387+Q13324).
T1 sequence (Q13324 whole entry): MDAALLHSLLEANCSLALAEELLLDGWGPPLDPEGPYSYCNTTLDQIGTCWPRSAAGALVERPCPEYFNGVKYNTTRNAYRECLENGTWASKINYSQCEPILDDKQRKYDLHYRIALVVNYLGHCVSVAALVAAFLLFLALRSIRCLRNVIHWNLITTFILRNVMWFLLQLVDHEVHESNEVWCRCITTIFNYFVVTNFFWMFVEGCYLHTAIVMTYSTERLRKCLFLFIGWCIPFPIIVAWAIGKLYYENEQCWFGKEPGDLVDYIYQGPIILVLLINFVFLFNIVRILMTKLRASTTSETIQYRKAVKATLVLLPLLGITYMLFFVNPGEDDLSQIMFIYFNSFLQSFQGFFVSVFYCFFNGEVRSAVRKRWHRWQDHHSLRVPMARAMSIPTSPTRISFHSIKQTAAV
T1 sequence (P24387 whole entry): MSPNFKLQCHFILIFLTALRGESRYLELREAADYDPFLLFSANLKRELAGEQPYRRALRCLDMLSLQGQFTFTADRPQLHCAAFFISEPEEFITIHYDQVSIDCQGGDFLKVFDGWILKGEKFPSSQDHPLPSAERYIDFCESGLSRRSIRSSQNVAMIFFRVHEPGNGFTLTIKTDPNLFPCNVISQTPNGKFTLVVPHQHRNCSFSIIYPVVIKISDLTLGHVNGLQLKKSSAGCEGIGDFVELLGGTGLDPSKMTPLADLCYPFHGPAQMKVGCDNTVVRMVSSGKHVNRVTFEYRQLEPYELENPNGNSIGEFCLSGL
Put plainly: Dose Response confirmation of uHTS hits for small molecule antagonists of the CRF-binding protein and CRF-R2 receptor complex. It counts as functional. The note with it: read-out: IC50_Mean.

Assay [9] deals with T1, Corticotropin-releasing factor receptor 2/Corticotropin-releasing factor-binding protein. Put plainly: activators of CRF receptor 2 with binding protein – uHTS hits, confirmation (AID 602473). It counts as functional. The note with it: read-out: EC50_Mean.
Assay [10] deals with Streptococcus sp. 'group A'. Put plainly: Streptococcus pyogenes SK(-)GAS viability under kanamycin – luminescence, BacTiterGlo, confirmation, counter-screen for streptokinase expression inhibitor project, dose response (AID 1900). It counts as functional, organism-based. In general terms: Counterscreens check selectivity or assay interference.
Another assay has as its target T2, Streptokinase A (Streptococcus pyogenes serotype M1, UniProt P10520).
T2 sequence (P10520 whole entry): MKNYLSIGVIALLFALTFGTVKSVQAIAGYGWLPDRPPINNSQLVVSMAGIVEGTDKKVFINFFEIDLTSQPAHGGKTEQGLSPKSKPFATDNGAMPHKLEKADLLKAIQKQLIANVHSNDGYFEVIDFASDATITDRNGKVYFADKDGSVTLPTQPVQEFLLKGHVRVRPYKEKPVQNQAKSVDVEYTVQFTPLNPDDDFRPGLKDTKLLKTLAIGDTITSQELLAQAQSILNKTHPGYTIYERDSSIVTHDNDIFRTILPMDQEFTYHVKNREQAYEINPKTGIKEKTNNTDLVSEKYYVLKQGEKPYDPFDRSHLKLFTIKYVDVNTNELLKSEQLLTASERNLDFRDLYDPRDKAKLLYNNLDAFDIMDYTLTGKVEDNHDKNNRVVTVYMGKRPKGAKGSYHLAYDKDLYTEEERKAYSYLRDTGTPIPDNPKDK
The assay is described as follows: viability-normalized secreted streptokinase activity reduction – plasminogen activation absorbance, OD405, dose response (AID 1914).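 Further: secreted streptokinase activity via plasminogen activation per viability signal from cell pellet.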 It counts as functional, Streptococcus pyogenes M1 GAS.

The nature of assay [11]: HPDE-C7 pancreatic duct cell viability loss – fluorescence, HTS (AID 430). It counts as functional, cell-based. The note with it: Homo sapiens.
Assay [12] in a line: viability loss of HPDE-C7K cells – cell-based, fluorescence, HTS, primary screen (AID 431). It counts as functional. As to conditions: Homo sapiens.
Assay [13] can be described thus: viability of PTEN-deleted HCT116 cells – cell-based, HCT116 PTEN knockout, dose response (AID 1047).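 Further: HCT116 colon tumor cells with PTEN knocked out; cells exposed to compound for 60 hours before readout; potency for loss of cell viability measured by luminescence.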 It counts as functional.
Assay [14] can be described thus: viability of HCT116 lacking mutant beta-catenin – cell-based, human colon tumor, dose response (AID 1045).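 Further: HCT116 colon tumor cells with beta catenin knocked out; cells exposed to compound for 60 hours.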 It counts as functional.
A further assay has as its system Streptococcus. Put plainly: GAS UMAA2166 growth inhibition – luminescence, BacTiterGlo, counter-screen for streptokinase expression inhibitor project, dose response (AID 1915).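 Further: potency for reduction of bacterial viability or growth.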 It counts as functional, organism-based.
Another assay concerns the target T3, Bcl-2-related protein A1 (Mus musculus, UniProt Q07440).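 Further: confirmatory dose–response counterscreen on Bfl-1, used to check hits from a UBC13 polyubiquitin inhibitor campaign.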
T3 sequence (Q07440 whole entry): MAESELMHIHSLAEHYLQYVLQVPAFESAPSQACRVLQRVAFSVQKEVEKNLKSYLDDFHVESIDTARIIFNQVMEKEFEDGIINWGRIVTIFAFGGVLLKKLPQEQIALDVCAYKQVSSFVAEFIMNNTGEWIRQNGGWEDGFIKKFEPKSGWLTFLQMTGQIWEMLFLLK
It counts as functional.

In assay [15] the target is T4, Ubiquitin-conjugating enzyme E2 N (Homo sapiens, UniProt P61088).
T4 sequence (P61088 whole entry): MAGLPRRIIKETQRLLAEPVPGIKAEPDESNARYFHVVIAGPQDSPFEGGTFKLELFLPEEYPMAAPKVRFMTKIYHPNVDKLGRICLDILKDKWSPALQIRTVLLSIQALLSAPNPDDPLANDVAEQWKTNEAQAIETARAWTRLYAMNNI
It counts as functional.

For assay [16], the target named is T4, Ubiquitin-conjugating enzyme E2 N. It counts as functional. The source holds these as a separate data set.
In assay [17] the target is T5, Long-chain-fatty-acid--AMP ligase FadD28 (Mycobacterium tuberculosis, UniProt P9WQ59).
T5 sequence (P9WQ59 whole entry): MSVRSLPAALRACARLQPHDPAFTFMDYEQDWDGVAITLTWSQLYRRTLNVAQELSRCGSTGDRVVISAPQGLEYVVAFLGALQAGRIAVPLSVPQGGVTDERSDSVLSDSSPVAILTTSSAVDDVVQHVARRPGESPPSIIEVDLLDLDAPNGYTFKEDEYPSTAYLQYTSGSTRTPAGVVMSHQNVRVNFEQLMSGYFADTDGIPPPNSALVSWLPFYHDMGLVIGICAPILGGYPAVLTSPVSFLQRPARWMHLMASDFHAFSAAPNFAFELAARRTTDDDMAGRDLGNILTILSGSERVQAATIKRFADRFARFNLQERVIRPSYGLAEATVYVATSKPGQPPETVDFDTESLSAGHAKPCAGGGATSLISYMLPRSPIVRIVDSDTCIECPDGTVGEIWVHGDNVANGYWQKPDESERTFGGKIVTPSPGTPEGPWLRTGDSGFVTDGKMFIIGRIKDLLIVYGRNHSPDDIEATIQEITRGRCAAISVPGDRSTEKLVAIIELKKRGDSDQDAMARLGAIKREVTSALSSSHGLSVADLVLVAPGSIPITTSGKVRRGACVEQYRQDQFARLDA
The assay is described as follows: Fluorescence polarization aasay to screen for inhibitors that compete for the binding of FadD28 to a bisubstrate Measured in Biochemical System Using Plate Reader - 2147-01_Inhibitor_Dose_CherryPick_Activity. It counts as functional, Mycobacterium tuberculosis H37Rv. (In general: In fluorescence polarisation assays a small probe gives low polarisation when free and higher when bound to something large.)

With `Cc1ccc2nc3c(C(=O)NCCN(C)C)cccc3cc2c1`, the GI50 – broadly, the concentration that inhibits growth by half – with P388/ADR was 1.85 µM (inactive); in the assay on SN12K1, 0.968 µM (active); with P388 it was 0.414 µM (active).

As for `CN(C)c1ccc(C(=O)N/N=C/C23CC[C@@H](O)CC2(O)CC[C@@H]2[C@@H]3CCC3(C)C(C4=CC(=O)OC4)CCC23O)cc1` (stereo not given in full), the EC50 with BJ [1] was 3.63 µM (active); in the assay on BJ [3] it was 14.2 µM (active); in the assay with BJ [4], 19 µM (active); in assay [5] it was 3.56 µM (active); in assay [9], > 53 µM (inactive). The values for the CC50 in the assay on Vero [2] and in the assay on Vero [7] were 17.9 µM (active) and 22 µM (active), respectively. Also, the IC50 was > 25 µM (active) in the assay on Vero [6] and > 47.1 µM (inactive) in assay [8].

On to `CC1OC1C(=O)C1(O)C(C)C(O)C23OC2(C(O)c2c(O)cccc2C3=O)C1O` (stereo not given) [CERVICARCIN], for which the GI50 in the assay on P388/ADR was 0.18 µM (active); with SN12K1, 0.225 µM (active); in the assay with P388, 0.144 µM (active).

For `CCCCCCCCCCCCCCC[C@@H](O)[C@@H](N)CO` [DIHYDROSPINGOSINE], the EC50 in [10] is 1.34 µM (active); at Streptokinase A, > 150 µM (not active); in assay [11], 14 µM (active); in assay [12] it was 9.93 µM (active); in assay [13], 8.66 µM (active); in assay [14], 7.58 µM (active). Moreover, the EC50 with Streptococcus is 8.91 µM (active). Besides, the IC50 at Bcl-2-related protein A1 was > 20 µM (inactive); in assay [15], 15.5 µM (active); in assay [16], 13.4 µM (active); in the assay with Vero [6], > 25 µM (active). In assay [17], the half-maximal activity concentration (AC50) (usually the midpoint of the concentration-response curve, whichever way the signal moves) is 5.6 µM (active).

For the compound `COc1ccc2c3c1O[C@H]1C[C@@H](O)C=C[C@@]31CCN(C)C2` [GALANTAMINE], the GI50 with P388/ADR, in the assay with SN12K1 and with P388 was > 150 µM (inactive) each time.
